{
  "source": "ChEMBL document CHEMBL5465560",
  "about": "“Selectivity Literature for EUbOPEN Chemogenomic Library” (2024)",
  "key": {"[1]": {"biological_target": "Myosin-IIIa (Homo sapiens) (UniProt Q8NEV4)", "sequence (Q8NEV4 whole entry)": "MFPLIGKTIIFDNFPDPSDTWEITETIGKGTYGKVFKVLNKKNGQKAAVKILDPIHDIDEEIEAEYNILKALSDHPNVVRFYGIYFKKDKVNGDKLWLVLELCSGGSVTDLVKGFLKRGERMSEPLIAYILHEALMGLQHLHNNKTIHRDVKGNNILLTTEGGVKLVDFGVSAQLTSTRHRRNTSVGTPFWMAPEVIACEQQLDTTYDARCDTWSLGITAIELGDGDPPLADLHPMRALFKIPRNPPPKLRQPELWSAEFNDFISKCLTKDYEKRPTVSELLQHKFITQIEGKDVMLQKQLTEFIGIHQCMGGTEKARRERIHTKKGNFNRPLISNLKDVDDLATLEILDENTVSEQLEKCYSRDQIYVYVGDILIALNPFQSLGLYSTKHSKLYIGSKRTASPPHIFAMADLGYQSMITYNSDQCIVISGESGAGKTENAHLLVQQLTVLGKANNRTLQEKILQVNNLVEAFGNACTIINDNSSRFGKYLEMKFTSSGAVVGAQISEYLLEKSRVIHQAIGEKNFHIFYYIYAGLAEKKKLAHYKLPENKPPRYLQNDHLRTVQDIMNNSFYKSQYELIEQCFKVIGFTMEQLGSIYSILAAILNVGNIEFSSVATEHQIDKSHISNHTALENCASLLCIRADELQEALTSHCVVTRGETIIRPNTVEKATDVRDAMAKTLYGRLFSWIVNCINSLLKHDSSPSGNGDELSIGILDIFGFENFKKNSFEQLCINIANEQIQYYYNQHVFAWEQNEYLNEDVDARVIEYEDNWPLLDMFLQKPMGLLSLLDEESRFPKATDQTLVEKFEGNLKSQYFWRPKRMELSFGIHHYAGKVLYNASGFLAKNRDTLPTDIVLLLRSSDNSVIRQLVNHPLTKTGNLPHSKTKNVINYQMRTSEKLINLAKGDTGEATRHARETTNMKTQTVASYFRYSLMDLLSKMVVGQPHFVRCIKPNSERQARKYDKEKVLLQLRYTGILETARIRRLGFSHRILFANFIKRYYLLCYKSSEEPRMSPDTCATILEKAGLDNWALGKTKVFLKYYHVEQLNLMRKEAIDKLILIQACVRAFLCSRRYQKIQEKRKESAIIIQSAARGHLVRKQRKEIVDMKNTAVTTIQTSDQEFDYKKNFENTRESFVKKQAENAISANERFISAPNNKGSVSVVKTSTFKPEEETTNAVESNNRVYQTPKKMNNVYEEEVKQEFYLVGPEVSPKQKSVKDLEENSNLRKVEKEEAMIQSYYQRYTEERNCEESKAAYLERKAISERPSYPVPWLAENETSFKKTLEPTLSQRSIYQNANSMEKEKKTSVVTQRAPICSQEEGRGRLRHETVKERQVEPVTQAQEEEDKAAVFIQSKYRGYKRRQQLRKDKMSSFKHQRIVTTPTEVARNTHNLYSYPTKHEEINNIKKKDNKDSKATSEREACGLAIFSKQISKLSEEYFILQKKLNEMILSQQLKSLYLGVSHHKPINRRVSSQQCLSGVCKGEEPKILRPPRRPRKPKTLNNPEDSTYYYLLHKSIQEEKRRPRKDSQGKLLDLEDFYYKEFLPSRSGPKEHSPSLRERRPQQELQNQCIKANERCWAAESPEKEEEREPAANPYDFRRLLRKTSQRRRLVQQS", "assay": "Selectivity interaction (KinomeScan (DiscoverX)) EUB0000229b MYO3A", "conditions": "at 10 µM"}, "[2]": {"biological_target": "Estrogen receptor (Homo sapiens) (UniProt P03372)", "assay": "Selectivity interaction (Eurofins CEREP Diversity Profile (receptors and ion channels)) EUB0000279b ESR1", "conditions": "at 10 µM"}, "[3]": {"biological_target": "Myosin-IIIa (Homo sapiens) (UniProt Q8NEV4)", "conditions": "at 10 µM"}, "[4]": {"biological_target": "Calcium/calmodulin-dependent protein kinase kinase 2 (Homo sapiens) (UniProt Q96RR4)", "assay": "Selectivity interaction (ActivX KiNativ screen (kinase selectivity in THP-1 cell lysates)) EUB0000639a CAMKK2", "assay_type": "subcellular", "conditions": "lysate, at 1 µM"}, "[5]": {"biological_target": "Serine/threonine-protein kinase 16 (Homo sapiens, UniProt O75716)", "sequence (O75716 whole entry)": "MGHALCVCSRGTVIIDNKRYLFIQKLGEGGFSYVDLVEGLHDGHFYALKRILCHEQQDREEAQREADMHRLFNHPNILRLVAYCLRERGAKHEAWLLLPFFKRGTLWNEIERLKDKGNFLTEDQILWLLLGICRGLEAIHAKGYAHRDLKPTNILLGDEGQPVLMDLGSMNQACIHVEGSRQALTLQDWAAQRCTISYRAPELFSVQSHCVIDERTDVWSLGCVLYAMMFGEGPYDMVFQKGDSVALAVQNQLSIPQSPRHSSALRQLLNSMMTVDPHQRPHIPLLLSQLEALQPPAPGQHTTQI", "assay": "Selectivity interaction (ActivX KiNativ screen (kinase selectivity in THP-1 cell lysates)) EUB0000639a STK16", "assay_type": "subcellular", "conditions": "lysate, at 0.04 µM"}, "[6]": {"biological_target": "Cyclin-dependent kinase 16 (Homo sapiens) (UniProt Q00536)", "assay": "Selectivity interaction (ActivX KiNativ screen (kinase selectivity in THP-1 cell lysates)) EUB0000639a CDK16", "assay_type": "subcellular", "conditions": "lysate, at 1 µM"}, "[7]": {"biological_target": "T1, Platelet-derived growth factor receptor alpha (Homo sapiens, UniProt P16234)", "T1 sequence (P16234 whole entry)": "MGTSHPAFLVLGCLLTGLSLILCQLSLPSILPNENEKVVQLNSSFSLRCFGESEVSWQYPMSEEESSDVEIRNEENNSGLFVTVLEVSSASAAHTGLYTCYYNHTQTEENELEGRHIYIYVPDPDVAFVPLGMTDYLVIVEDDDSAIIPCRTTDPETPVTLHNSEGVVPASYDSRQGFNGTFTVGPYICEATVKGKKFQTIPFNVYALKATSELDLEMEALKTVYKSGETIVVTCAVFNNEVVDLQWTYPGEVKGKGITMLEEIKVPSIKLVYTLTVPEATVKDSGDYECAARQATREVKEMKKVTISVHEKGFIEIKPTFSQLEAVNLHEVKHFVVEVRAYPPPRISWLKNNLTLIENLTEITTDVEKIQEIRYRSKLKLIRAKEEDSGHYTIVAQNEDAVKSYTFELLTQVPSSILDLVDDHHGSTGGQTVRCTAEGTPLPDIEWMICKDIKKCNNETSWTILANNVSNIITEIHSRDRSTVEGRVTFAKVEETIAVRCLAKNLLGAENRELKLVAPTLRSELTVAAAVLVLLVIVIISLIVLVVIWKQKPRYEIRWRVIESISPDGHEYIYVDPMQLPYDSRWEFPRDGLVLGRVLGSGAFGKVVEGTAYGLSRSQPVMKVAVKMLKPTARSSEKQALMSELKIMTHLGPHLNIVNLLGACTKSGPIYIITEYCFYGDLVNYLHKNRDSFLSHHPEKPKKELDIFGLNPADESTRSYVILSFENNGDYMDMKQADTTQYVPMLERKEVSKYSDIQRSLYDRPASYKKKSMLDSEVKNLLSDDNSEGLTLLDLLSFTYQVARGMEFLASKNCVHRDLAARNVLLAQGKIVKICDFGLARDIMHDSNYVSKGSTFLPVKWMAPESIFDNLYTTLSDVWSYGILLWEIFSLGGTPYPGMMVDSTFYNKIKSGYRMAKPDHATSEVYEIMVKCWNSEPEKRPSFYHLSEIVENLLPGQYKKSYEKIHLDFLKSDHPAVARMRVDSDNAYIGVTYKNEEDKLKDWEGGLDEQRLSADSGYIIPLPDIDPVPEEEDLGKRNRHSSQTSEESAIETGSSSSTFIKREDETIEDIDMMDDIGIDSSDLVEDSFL", "assay": "(§1) Selectivity interaction (Kinase panel (Invitrogen)) EUB0000639a PDGFRA", "conditions": "at 200 nM"}, "[8]": {"biological_target": "T1, Platelet-derived growth factor receptor alpha", "assay": "as §1", "conditions": "at 200 nM", "remark": "listed apart in the source"}, "[9]": {"biological_target": "MAP kinase-activated protein kinase 3 (Homo sapiens) (UniProt Q16644)", "assay": "Selectivity interaction (Kinase screening (Nanosyn)) EUB0000604a MAPKAPK3"}, "[10]": {"biological_target": "Serine/threonine-protein kinase 35 (Homo sapiens) (UniProt Q8TDR2)", "conditions": "at 10 µM"}, "[11]": {"biological_target": "Tyrosine-protein kinase ABL2 (Homo sapiens, UniProt P42684)", "assay": "Selectivity interaction (ActivX KiNativ screen (ex vivo kinase selectivity in human PBMCs)) EUB0001619a ABL2", "assay_type": "cell-based", "conditions": "PBMC, at 1 µM"}, "[12]": {"biological_target": "T2, Phosphatidylinositol 5-phosphate 4-kinase type-2 beta (Homo sapiens) (UniProt P78356)", "T2 sequence (whole entry)": "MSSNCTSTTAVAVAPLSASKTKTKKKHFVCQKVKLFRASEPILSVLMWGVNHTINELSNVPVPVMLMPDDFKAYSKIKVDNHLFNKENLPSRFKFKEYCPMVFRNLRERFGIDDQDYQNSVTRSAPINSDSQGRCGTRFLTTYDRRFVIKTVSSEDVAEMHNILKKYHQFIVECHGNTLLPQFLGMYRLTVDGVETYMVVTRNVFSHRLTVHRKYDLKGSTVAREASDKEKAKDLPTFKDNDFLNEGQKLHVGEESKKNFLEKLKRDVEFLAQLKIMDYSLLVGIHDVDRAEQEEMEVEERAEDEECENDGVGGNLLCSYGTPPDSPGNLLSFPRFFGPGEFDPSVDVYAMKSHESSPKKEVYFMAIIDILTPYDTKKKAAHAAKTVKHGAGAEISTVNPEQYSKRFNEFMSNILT", "assay": "Selectivity interaction (ActivX KiNativ screen (ex vivo kinase selectivity in human PBMCs)) EUB0001619a PIP4K2B", "assay_type": "cell-based", "conditions": "PBMC, at 1 µM"}, "[13]": {"biological_target": "T3, Serine/threonine-protein kinase TBK1 (Homo sapiens) (UniProt Q9UHD2)", "T3 sequence (whole entry)": "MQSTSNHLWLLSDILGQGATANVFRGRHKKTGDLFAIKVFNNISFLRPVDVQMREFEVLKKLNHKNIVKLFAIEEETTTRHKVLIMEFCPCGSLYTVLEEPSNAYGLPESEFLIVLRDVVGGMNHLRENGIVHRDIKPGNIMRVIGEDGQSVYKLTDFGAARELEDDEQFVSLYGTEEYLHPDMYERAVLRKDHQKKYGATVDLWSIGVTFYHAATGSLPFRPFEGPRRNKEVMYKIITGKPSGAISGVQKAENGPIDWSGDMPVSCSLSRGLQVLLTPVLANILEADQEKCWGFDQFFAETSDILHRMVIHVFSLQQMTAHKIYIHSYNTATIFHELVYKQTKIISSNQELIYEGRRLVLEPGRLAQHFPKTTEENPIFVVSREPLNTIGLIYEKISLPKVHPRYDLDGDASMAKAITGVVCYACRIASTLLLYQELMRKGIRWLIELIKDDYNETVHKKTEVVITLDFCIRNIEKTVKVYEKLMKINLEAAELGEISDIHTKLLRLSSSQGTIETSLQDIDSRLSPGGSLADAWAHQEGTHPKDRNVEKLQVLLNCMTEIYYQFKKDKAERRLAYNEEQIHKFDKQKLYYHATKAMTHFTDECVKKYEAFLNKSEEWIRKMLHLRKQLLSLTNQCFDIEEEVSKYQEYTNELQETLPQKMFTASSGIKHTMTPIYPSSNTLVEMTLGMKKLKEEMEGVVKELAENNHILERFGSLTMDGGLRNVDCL", "assay": "Selectivity interaction (KinomeScan (DiscoverX)) EUB0001619a TBK1", "conditions": "at 1 µM"}, "[14]": {"biological_target": "Non-receptor tyrosine-protein kinase TYK2 (Homo sapiens, UniProt P29597)", "sequence (P29597 whole entry)": "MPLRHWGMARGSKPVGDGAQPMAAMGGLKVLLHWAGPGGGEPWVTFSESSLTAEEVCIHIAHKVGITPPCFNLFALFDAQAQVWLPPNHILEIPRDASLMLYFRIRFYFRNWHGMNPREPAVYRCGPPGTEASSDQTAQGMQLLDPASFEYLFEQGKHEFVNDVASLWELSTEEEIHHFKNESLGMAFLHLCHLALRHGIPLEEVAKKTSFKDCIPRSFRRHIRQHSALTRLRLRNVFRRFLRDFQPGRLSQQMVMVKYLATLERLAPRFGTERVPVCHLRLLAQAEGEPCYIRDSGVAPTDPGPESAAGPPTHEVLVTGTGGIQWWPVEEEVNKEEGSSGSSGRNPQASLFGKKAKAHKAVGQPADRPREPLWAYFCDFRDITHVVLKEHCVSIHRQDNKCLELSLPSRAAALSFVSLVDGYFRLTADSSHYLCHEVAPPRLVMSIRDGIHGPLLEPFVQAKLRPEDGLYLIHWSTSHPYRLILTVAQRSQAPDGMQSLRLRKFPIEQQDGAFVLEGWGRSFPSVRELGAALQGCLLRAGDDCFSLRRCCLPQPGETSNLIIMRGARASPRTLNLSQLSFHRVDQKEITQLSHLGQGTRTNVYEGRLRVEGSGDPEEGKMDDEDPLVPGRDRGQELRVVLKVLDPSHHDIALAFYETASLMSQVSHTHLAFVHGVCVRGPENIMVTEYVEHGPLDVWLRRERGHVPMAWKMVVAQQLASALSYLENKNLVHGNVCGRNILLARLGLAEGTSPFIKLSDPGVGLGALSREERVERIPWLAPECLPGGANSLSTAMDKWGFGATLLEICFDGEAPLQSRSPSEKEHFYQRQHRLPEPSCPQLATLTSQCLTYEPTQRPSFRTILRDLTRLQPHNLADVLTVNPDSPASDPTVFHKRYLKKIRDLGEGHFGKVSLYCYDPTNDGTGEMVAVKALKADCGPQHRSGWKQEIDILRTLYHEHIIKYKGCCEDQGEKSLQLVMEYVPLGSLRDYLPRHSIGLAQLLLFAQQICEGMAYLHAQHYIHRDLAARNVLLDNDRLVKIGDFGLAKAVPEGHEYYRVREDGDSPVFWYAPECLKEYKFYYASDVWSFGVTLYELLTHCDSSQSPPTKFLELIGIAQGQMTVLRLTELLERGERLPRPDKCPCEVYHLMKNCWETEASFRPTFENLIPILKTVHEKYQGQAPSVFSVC", "assay": "Selectivity interaction (KinomeScan (DiscoverX)) EUB0001619a TYK2", "conditions": "at 1 µM"}, "[15]": {"biological_target": "Serine/threonine-protein kinase 26 (Homo sapiens, UniProt Q9P289)", "sequence (Q9P289 2-416 limits assumed)": "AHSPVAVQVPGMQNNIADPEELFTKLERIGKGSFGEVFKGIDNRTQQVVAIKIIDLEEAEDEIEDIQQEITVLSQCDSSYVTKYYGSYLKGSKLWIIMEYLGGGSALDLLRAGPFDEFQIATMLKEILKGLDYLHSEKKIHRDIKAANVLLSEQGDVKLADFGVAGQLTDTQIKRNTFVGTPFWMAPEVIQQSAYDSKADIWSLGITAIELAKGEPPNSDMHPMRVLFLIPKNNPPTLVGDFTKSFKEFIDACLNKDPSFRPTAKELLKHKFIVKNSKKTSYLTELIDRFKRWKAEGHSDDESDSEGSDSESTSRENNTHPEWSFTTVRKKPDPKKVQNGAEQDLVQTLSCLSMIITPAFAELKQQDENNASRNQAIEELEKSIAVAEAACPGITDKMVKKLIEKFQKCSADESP", "assay": "Selectivity interaction (KinomeScan (DiscoverX)) EUB0000607a STK26", "conditions": "at 10 µM"}, "[16]": {"biological_target": "T4, Serine/threonine-protein kinase Nek2 (Homo sapiens) (UniProt P51955)", "T4 sequence (whole entry)": "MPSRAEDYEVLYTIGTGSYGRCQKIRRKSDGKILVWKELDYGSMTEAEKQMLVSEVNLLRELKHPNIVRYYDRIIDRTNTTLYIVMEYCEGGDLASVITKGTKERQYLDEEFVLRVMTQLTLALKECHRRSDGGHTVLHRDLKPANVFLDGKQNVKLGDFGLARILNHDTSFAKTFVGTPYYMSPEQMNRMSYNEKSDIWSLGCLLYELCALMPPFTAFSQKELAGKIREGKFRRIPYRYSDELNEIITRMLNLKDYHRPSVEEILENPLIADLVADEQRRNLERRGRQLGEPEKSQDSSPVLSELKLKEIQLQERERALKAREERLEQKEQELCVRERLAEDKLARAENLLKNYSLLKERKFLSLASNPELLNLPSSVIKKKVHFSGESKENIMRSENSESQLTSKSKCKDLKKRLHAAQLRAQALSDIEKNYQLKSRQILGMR", "assay": "Selectivity interaction (KinomeScan (DiscoverX)) EUB0000607a NEK2", "conditions": "at 10 µM"}, "[17]": {"biological_target": "TRAF2 and NCK-interacting protein kinase (Homo sapiens) (UniProt Q9UKE5)", "assay": "Selectivity interaction (KinomeScan (DiscoverX)) EUB0000607a TNIK", "conditions": "at 10 µM"}, "[18]": {"biological_target": "Phosphatidylinositol 4,5-bisphosphate 3-kinase catalytic subunit beta isoform (Homo sapiens) (UniProt P42338)", "assay": "Selectivity interaction (Adapta Assay) EUB0001632a PIK3CB", "conditions": "at 10 µM"}, "[19]": {"biological_target": "Dual specificity mitogen-activated protein kinase kinase 1 (Homo sapiens, UniProt Q02750)", "sequence (Q02750 whole entry)": "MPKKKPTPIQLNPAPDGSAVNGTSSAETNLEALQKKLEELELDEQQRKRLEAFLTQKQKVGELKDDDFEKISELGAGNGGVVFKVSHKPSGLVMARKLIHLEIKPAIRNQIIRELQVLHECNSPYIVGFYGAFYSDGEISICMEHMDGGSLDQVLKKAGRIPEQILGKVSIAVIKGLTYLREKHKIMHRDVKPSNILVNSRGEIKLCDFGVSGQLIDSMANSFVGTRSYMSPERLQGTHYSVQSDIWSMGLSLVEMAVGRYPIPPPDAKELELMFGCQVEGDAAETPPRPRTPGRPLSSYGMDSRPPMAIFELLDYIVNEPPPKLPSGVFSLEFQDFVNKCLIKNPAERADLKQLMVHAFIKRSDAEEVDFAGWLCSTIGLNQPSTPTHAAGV", "assay": "Selectivity interaction (ProQinase) EUB0000171b MAP2K1"}},
  "data": [
    {"molecule": "COc1cc(N(C)c2ccnc3ccc(C(F)(F)F)cc23)cc(OC)c1OC", "values": [
      {"measurement": "% binding", "setting": "[1]", "result": 94, "unit": "%"}
    ]},
    {"molecule": "CC(=O)c1cc(-c2ccccc2OCC2CC2)c2ncccn12", "values": [
      {"measurement": "% of control", "setting": "[2]", "result": 98, "unit": "%"}
    ]},
    {"molecule": "CCN(CC)CCCCNc1ncc2cc(-c3cc(OC)cc(OC)c3)c(NC(=O)NC(C)(C)C)nc2n1", "values": [
      {"measurement": "% of control", "setting": "[3]", "result": 100, "unit": "%"}
    ]},
    {"molecule": "CC[C@@H]1[C@H](F)C(=O)N[C@@H]1COc1nccc2cc(C(N)=O)c(OC)cc12", "note": "[ZIMLOVISERTIB]", "values": [
      {"measurement": "% of inhibition", "setting": "[4]", "result": 12.1, "unit": "%"},
      {"measurement": "% of inhibition", "setting": "[5]", "result": 13.8, "unit": "%"},
      {"measurement": "% of inhibition", "setting": "[6]", "result": 7.7, "unit": "%"},
      {"measurement": "% of inhibition", "setting": "[7]", "result": 1.87, "unit": "%"},
      {"measurement": "% of inhibition", "setting": "[8]", "result": -0.518, "unit": "%"}
    ]},
    {"molecule": "Cc1cnc(Nc2ccc(F)cc2Cl)nc1-c1c[nH]c(C(=O)N[C@H](CO)c2cccc(Cl)c2)c1", "values": [
      {"measurement": "% of inhibition", "setting": "[9]", "result": 5, "unit": "%"}
    ]},
    {"molecule": "Cc1cc([C@@H](C)Nc2ccccc2C(=O)O)c2nc(N3CCOCC3)cc(=O)n2c1", "note": "[AZD-6482]", "values": [
      {"measurement": "% of control", "setting": "[10]", "result": 95, "unit": "%"}
    ]},
    {"molecule": "N#Cc1cccc(-c2c[nH]c3ncnc(N4CCOCC4)c23)c1", "values": [
      {"measurement": "% of inhibition", "setting": "[11]", "result": -53, "unit": "%"},
      {"measurement": "% of inhibition", "setting": "[12]", "result": 16, "unit": "%"},
      {"measurement": "% of control", "setting": "[13]", "result": 100, "unit": "%"},
      {"measurement": "% of control", "setting": "[14]", "result": 75, "unit": "%"}
    ]},
    {"molecule": "CNC(=O)Nc1ccc(-c2nc(N3CC4CCC(C3)O4)c3cnn(C4CCC5(CC4)OCCO5)c3n2)cc1", "values": [
      {"measurement": "% of control", "setting": "[15]", "result": 70, "unit": "%"},
      {"measurement": "% of control", "setting": "[16]", "result": 72, "unit": "%"},
      {"measurement": "% of control", "setting": "[17]", "result": 100, "unit": "%"}
    ]},
    {"molecule": "Cn1cc(-n2cnc3c(NCc4nc5cc(Cl)c(Cl)cc5[nH]4)nc(N4CCOCC4)nc32)cn1", "values": [
      {"measurement": "% of inhibition", "setting": "[18]", "result": 11.6, "unit": "%"}
    ]},
    {"molecule": "C=CC(=O)Nc1cccc(C(=O)Nc2ccc(Nc3cc(-c4[nH]c(SC)nc4C)ccn3)cc2)c1", "values": [
      {"measurement": "% of control", "setting": "[19]; at 1 µM", "result": 96, "unit": "%"},
      {"measurement": "% of control", "setting": "[19]; at 5 µM", "result": 113, "unit": "%"}
    ]}
  ]
}
